Assay results reported in US20250230171A1 (MOMA Therapeutics, Inc., priority 2023, published 2025).

Tests used:
DLD1 BRCA2 (−/−) cells = assay: 7-day cell viability assay (CellTiter-Glo), DLD1 BRCA2 (−/−); format: cell-based, human; settings: Homo sapiens, DLD-1, 168 h, 7-day CellTiter-Glo, n=2, read-out: Viability IC50 (uM) DLD1 BRCA2 null
How it was run: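 7-day growth assay in DLD1 cells with or without BRCA2; seeding densities chosen to keep log-linear growth. Compound: 10 uM top, 3-fold, 9 points. Endpoint: CTG ATP luminescence at RT.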

DLD1 WT cells = assay: 7-day cell viability assay (CellTiter-Glo), DLD1 parental (WT); format: cell-based, human; settings: Homo sapiens, DLD-1, 168 h, 7-day CellTiter-Glo, n=2
Description: Cell lines DLD1 WT and DLD1 BRCA2 (−/−) (Horizon Discovery Cat No. HD PAR-008 and HD-105-007) were plated in 384-well culture plates at seeding densities of 100cells/50 ul/well and 200 cells/50 uL/well respectively. The seeding densities are pre-determined from the growth curve kinetics performed to ensure log linear phase of cell growth for these 2 cell lines. These assay plates are then placed in the incubator at 37° C., 5% CO2, relative humidity >90% for a few hours before addition of test compounds. Compounds are dispensed using the Tecan HPD300 or Echo based on the plate map in the appropriate wells of the 384-well plates. The cells are treated with nine-point dose response with 3-fold serial dilutions of test compounds starting at 10 uM top concentration. After addition of the test compounds, the plates are incubated at 37° C., 5% CO2, relative humidity >90% for 7 days. CellTiter-Glo (Promega Cat. No. G7573), ATP detection reagent is prepared according to manufacturer's specifications. Cell assay plates are removed from incubator and bring to room temperature (RT) by letting them sit at bench top for at least 15 min. Using the MultiDrop liquid handler or a multichannel pipette, 35 μL/well of CTG is added and the plates are then placed shakes for 5 seconds, RT.

## COc1cnc(Cl)cc1-c1cc(C)ncc1C(=O)Nc1nc2c(s1)CN(C(=O)c1nc(C(F)(F)F)ccc1OC)C2 [Example 937, 2′-chloro-5′-methoxy-N-(5-(3-methoxy-6-(trifluoromethyl)picolinoyl)-5,6-dihydro-4H-pyrrolo[3,4-d]thiazol-2-yl)-6-methyl-[4,4′-bipyridine]-3-carboxamide]
DLD1 BRCA2 (−/−) cells
  IC50: 0.001 to 0.1 µM
DLD1 WT cells
  IC50: ≥ 10 µM

## Cc1cc(-c2cc(Cl)cnc2OC(F)F)c(C(=O)Nc2nc3c(s2)CN(C(=O)c2ccc(C(F)F)cn2)C3)cn1 [Example 938, 5-chloro-2-(difluoromethoxy)-N-(5-(5-(difluoromethyl)picolinoyl)-5,6-dihydro-4H-pyrrolo[3,4-d]thiazol-2-yl)-6′-methyl-[3,4′-bipyridine]-3′-carboxamide]
DLD1 BRCA2 (−/−) cells
  IC50: 0.001 to 0.1 µM
DLD1 WT cells
  IC50: ≥ 10 µM

## COc1cnc(Cl)cc1-c1cc(C)ncc1C(=O)Nc1nc2c(s1)CN(C(=O)c1nc(Cl)c(C(F)F)cc1C)C2 [Example 940, 2′-chloro-N-(5-(6-chloro-5-(difluoromethyl)-3-methylpicolinoyl)-5,6-dihydro-4H-pyrrolo[3,4-d]thiazol-2-yl)-5′-methoxy-6-methyl-[4,4′-bipyridine]-3-carboxamide]
DLD1 BRCA2 (−/−) cells
  IC50: 0.001 to 0.1 µM
DLD1 WT cells
  IC50: ≥ 10 µM

## COc1cnc(Cl)cc1-c1cc(C)ncc1C(=O)Nc1nc2c(s1)CN(C(=O)c1ncc(C(F)(F)F)nc1OC)C2 [Example 945, 2′-chloro-5′-methoxy-N-(5-(3-methoxy-5-(trifluoromethyl)pyrazine-2-carbonyl)-5,6-dihydro-4H-pyrrolo[3,4-d]thiazol-2-yl)-6-methyl-[4,4′-bipyridine]-3-carboxamide]
DLD1 BRCA2 (−/−) cells
  IC50: 0.001 to 0.1 µM
DLD1 WT cells
  IC50: ≥ 10 µM

## COc1cnc(Cl)cc1-c1cc(C)ncc1C(=O)Nc1nc2c(s1)CN(C(=O)c1ccc(C(F)F)nc1C)C2 [Example 947, 2′-chloro-N-(5-(6-(difluoromethyl)-2-methylnicotinoyl)-5,6-dihydro-4H-pyrrolo[3,4-d]thiazol-2-yl)-5′-methoxy-6-methyl-[4,4′-bipyridine]-3-carboxamide]
DLD1 BRCA2 (−/−) cells
  IC50: 0.001 to 0.1 µM
DLD1 WT cells
  IC50: ≥ 10 µM

## COc1cnc(Cl)cc1-c1cc(C)ncc1C(=O)Nc1nc2c(s1)CN(C(=O)c1nccc(C(F)F)c1F)C2 [Example 949, 2′-chloro-N-(5-(4-(difluoromethyl)-3-fluoropicolinoyl)-5,6-dihydro-4H-pyrrolo[3,4-d]thiazol-2-yl)-5′-methoxy-6-methyl-[4,4′-bipyridine]-3-carboxamide]
DLD1 BRCA2 (−/−) cells
  IC50: 0.001 to 0.1 µM
DLD1 WT cells
  IC50: ≥ 10 µM

## COc1cnc(Cl)cc1-c1cc(C)ncc1C(=O)Nc1nc2c(s1)CN(C(=O)c1nccc(C(F)(F)F)c1C)C2 [Example 951, 2′-chloro-5′-methoxy-6-methyl-N-(5-(3-methyl-4-(trifluoromethyl)picolinoyl)-5,6-dihydro-4H-pyrrolo[3,4-d]thiazol-2-yl)-[4,4′-bipyridine]-3-carboxamide]
DLD1 BRCA2 (−/−) cells
  IC50: 0.001 to 0.1 µM
DLD1 WT cells
  IC50: ≥ 10 µM

## COc1cnc(Cl)cc1-c1cc(C)ncc1C(=O)Nc1nc2c(s1)CN(C(=O)c1nc(C(F)(F)F)ccc1Cl)C2 [Example 952, 2′-chloro-N-(5-(3-chloro-6-(trifluoromethyl)picolinoyl)-5,6-dihydro-4H-pyrrolo[3,4-d]thiazol-2-yl)-5′-methoxy-6-methyl-[4,4′-bipyridine]-3-carboxamide]
DLD1 BRCA2 (−/−) cells
  IC50: 0.001 to 0.1 µM
DLD1 WT cells
  IC50: ≥ 10 µM

## COc1cnc(Cl)cc1-c1cc(C)ncc1C(=O)Nc1nc2c(s1)CN(C(=O)C1CCN(CC(F)(F)F)CC1)C2 [Example 959, 2′-chloro-5′-methoxy-6-methyl-N-(5-(1-(2,2,2-trifluoroethyl)piperidine-4-carbonyl)-5,6-dihydro-4H-pyrrolo[3,4-d]thiazol-2-yl)-[4,4′-bipyridine]-3-carboxamide]
DLD1 BRCA2 (−/−) cells
  IC50: 0.001 to 0.1 µM
DLD1 WT cells
  IC50: ≥ 10 µM

## COc1cnc(Cl)cc1-c1cc(C)ncc1C(=O)Nc1nc2c(s1)CN(C(=O)c1nccc(C(F)(F)F)c1F)C2 [Example 961, 2′-chloro-N-(S-(3-fluoro-4-(trifluoromethyl)picolinoyl)-5,6-dihydro-4H-pyrrolo[3,4-d]thiazol-2-yl)-5′-methoxy-6-methyl-[4,4′-bipyridine]-3-carboxamide]
DLD1 BRCA2 (−/−) cells
  IC50: 0.001 to 0.1 µM
DLD1 WT cells
  IC50: ≥ 10 µM

## COc1cnc(Cl)cc1-c1cc(C)ncc1C(=O)Nc1nc2c(s1)CN(C(=O)c1ccc(C(F)(F)F)c(OC)n1)C2 [Example 962, 2′-chloro-5′-methoxy-N-(5-(6-methoxy-5-(trifluoromethyl)picolinoyl)-5,6-dihydro-4H-pyrrolo[3,4-d]thiazol-2-yl)-6-methyl-[4,4′-bipyridine]-3-carboxamide]
DLD1 BRCA2 (−/−) cells
  IC50: 0.001 to 0.1 µM
DLD1 WT cells
  IC50: 5 to 10 µM

## COc1cnc(Cl)cc1-c1cc(C)ncc1C(=O)Nc1nc2c(s1)CN(Cc1ccc(C(F)F)cc1F)C2 [Example 964, 2′-chloro-N-(5-(4-(difluoromethyl)-2-fluorobenzyl)-5,6-dihydro-4H-pyrrolo[3,4-d]thiazol-2-yl)-5′-methoxy-6-methyl-[4,4′-bipyridine]-3-carboxamide]
DLD1 BRCA2 (−/−) cells
  IC50: 0.001 to 0.1 µM
DLD1 WT cells
  IC50: ≥ 10 µM

## COc1cnc(Cl)cc1-c1cc(C)ncc1C(=O)Nc1nc2c(s1)CN(C(=O)c1nc(C(F)(F)F)ccc1C)C2 [Example 965, 2′-chloro-5′-methoxy-6-methyl-N-(5-(3-methyl-6-(trifluoromethyl)picolinoyl)-5,6-dihydro-4H-pyrrolo[3,4-d]thiazol-2-yl)-[4,4′-bipyridine]-3-carboxamide]
DLD1 BRCA2 (−/−) cells
  IC50: 0.001 to 0.1 µM
DLD1 WT cells
  IC50: ≥ 10 µM

## COc1cnc(Cl)cc1-c1cc(C)ncc1C(=O)Nc1nc2c(s1)CN(C(=O)c1nccc(C(F)F)c1OC)C2 [Example 966, 2′-chloro-N-(5-(4-(difluoromethyl)-3-methoxypicolinoyl)-5,6-dihydro-4H-pyrrolo[3,4-d]thiazol-2-yl)-5′-methoxy-6-methyl-[4,4′-bipyridine]-3-carboxamide]
DLD1 BRCA2 (−/−) cells
  IC50: 0.001 to 0.1 µM
DLD1 WT cells
  IC50: ≥ 10 µM

## COc1cnc(Cl)cc1-c1cc(C)ncc1C(=O)Nc1nc2c(s1)CN(C(=O)c1nccc(C(F)(F)F)c1OC)C2 [Example 968, 2′-chloro-5′-methoxy-N-(5-(3-methoxy-4-(trifluoromethyl)picolinoyl)-5,6-dihydro-4H-pyrrolo[3,4-d]thiazol-2-yl)-6-methyl-[4,4′-bipyridine]-3-carboxamide]
DLD1 BRCA2 (−/−) cells
  IC50: 0.001 to 0.1 µM
DLD1 WT cells
  IC50: ≥ 10 µM

## CCOc1nc(C(F)(F)F)ccc1C(=O)N1Cc2nc(NC(=O)c3cnc(C)cc3-c3cc(Cl)ncc3OC)sc2C1 [Example 969, 2′-chloro-N-(5-(2-ethoxy-6-(trifluoromethyl)nicotinoyl)-5,6-dihydro-4H-pyrrolo[3,4-d]thiazol-2-yl)-5′-methoxy-6-methyl-[4,4′-bipyridine]-3-carboxamide]
DLD1 BRCA2 (−/−) cells
  IC50: 0.001 to 0.1 µM
DLD1 WT cells
  IC50: ≥ 10 µM

## CCc1nc(C(F)(F)F)ccc1C(=O)N1Cc2nc(NC(=O)c3cnc(C)cc3-c3cc(Cl)ncc3OC)sc2C1 [Example 970, 2′-chloro-N-(5-(2-ethyl-6-(trifluoromethyl)nicotinoyl)-5,6-dihydro-4H-pyrrolo[3,4-d]thiazol-2-yl)-5′-methoxy-6-methyl-[4,4′-bipyridine]-3-carboxamide]
DLD1 BRCA2 (−/−) cells
  IC50: 0.001 to 0.1 µM
DLD1 WT cells
  IC50: ≥ 10 µM

## COc1cnc(Cl)cc1-c1cc(C)ncc1C(=O)Nc1nc2c(s1)CN(C(=O)c1ncc(C(F)F)nc1OC)C2 [Example 972, 2′-chloro-N-(5-(5-(difluoromethyl)-3-methoxypyrazine-2-carbonyl)-5,6-dihydro-4H-pyrrolo[3,4-d]thiazol-2-yl)-5′-methoxy-6-methyl-[4,4′-bipyridine]-3-carboxamide]
DLD1 BRCA2 (−/−) cells
  IC50: 0.001 to 0.1 µM
DLD1 WT cells
  IC50: ≥ 10 µM

## COc1cnc(Cl)cc1-c1cc(C)ncc1C(=O)Nc1nc2c(s1)CN(C(=O)c1cnc(C(F)(F)F)cc1Cl)C2 [Example 973, 2′-chloro-N-(5-(4-chloro-6-(trifluoromethyl)nicotinoyl)-5,6-dihydro-4H-pyrrolo[3,4-d]thiazol-2-yl)-5′-methoxy-6-methyl-[4,4′-bipyridine]-3-carboxamide]
DLD1 BRCA2 (−/−) cells
  IC50: 0.001 to 0.1 µM
DLD1 WT cells
  IC50: ≥ 10 µM

## COc1cc(C(F)(F)F)ncc1C(=O)N1Cc2nc(NC(=O)c3cnc(C)cc3-c3cc(Cl)ncc3OC)sc2C1 [Example 974, 2′-chloro-5′-methoxy-N-(5-(4-methoxy-6-(trifluoromethyl)nicotinoyl)-5,6-dihydro-4H-pyrrolo[3,4-d]thiazol-2-yl)-6-methyl-[4,4′-bipyridine]-3-carboxamide]
DLD1 BRCA2 (−/−) cells
  IC50: 0.001 to 0.1 µM
DLD1 WT cells
  IC50: ≥ 10 µM

## COc1cnc(Cl)cc1-c1cc(C)ncc1C(=O)Nc1nc2c(s1)CN(C(C)c1ccc(C(F)F)cc1F)C2 (centres unmarked) [Example 975, 2′-chloro-N-(5-(1-(4-(difluoromethyl)-2-fluorophenyl)ethyl)-5,6-dihydro-4H-pyrrolo[3,4-d]thiazol-2-yl)-5′-methoxy-6-methyl-[4,4′-bipyridine]-3-carboxamide]
DLD1 BRCA2 (−/−) cells
  IC50: 0.001 to 0.1 µM
DLD1 WT cells
  IC50: ≥ 10 µM

## COc1cnc(Cl)cc1-c1cc(C)ncc1C(=O)Nc1nc2c(s1)CN(C(=O)c1nccc(C(F)F)c1C)C2 [Example 976, 2′-chloro-N-(5-(4-(difluoromethyl)-3-methylpicolinoyl)-5,6-dihydro-4H-pyrrolo[3,4-d]thiazol-2-yl)-5′-methoxy-6-methyl-[4,4′-bipyridine]-3-carboxamide]
DLD1 BRCA2 (−/−) cells
  IC50: 0.001 to 0.1 µM
DLD1 WT cells
  IC50: ≥ 10 µM
